Reference: patent US20160136229A1, “MATERIALS FOR POSITIVE CATHEPSIN B MODULATION AND METHODS OF USE FOR TREATING MILD COGNITIVE IMPAIRMENT (MCI), EARLY DEMENTIA, A-SYNUCLEINOPATHY, TRAUMATIC BRAIN INJURY, CARDIOMYOPATHY, EYE DISEASE AND SKIN DAMAGE” (University of North Carolina at Pembroke, priority 2013, published 2016)

Legend:
11-month Fischer rats [1] = assay: Passive avoidance task in 11-month Fischer rats (model of MCI and early dementia); type: in vivo, rat; details: 27 mg/kg daily
Procedure: (§1) FIG. 2. The cathepsin B modulatory compound PADK improved learning and memory in 11-month Fischer rats, a model of mild cognitive impairment (MCI) and early dementia. A classic passive avoidance task to assess memory utilized a bi-sectioned apparatus consisting of a brightly-lit compartment and a dark compartment separated by a small door. […] In this figure, the female rats were injected daily with vehicle or 27 mg/kg PADK. Following each morning's injection, the rats were placed individually into the bright compartment and, after 10 s, the door was opened through which the rats typically entered immediately (3 min total time in apparatus/rat/day). Panel A: On the seventh injection day, latency time before entering the opened doorway was measured (pre-shock bars, mean±SEM), after which the door was closed to contain the animal in the dark compartment. A mild foot shock of 0.6 mA, 2 s duration, was then administered to the contained rat via the floor grid. Following the next day's injections, rats were again placed in the bright compartment and latency times measured after the door was opened (post-shock bars). […] Brains were removed after the behavior studies in order to assess cathepsin B levels.
In the 11-month Fischer rats, a model of MCI and early dementia, PADK improved passive avoidance memory. […]

11-month Fischer rats [2] = assay: Exploratory habituation in novel field, Fischer rats; type: in vivo, rat; details: 27 mg/kg daily, vs vehicle-treated rats
Procedure: as §1
The animal groups were also tested across two days in the same novel field, and the number of grid crossings per 3-min period was measured to determine exploratory habituation.

active cathepsin B = biological target: T1, active cathepsin B (Mus musculus, UniProt P10605); assay: Active cathepsin B staining in PADK-treated mice; type: in vivo; details: 18 mg/kg/d×9 days, ip, vs vehicle
T1 construct: from tissue; host or cells: brain and CNS regions of mice (PADK-treated mice, A53T transgenic and wild-type mice, C57BL/6 mice)
Procedure: (§2) FIG. 4. Enhancing lysosome efficiency with the cathepsin B modulator PADK leads to reductions of multiple types of proteinopathy-related accumulation events. […] Age-matched wild-type mice (wt) and 9-10-month mutant human APP mice, a model of early dementia, treated with or without PADK were assessed for the 4-kDa Δβ peptide, the active form of cathepsin B (act CB), and other proteins in hippocampal samples (C). Similar treatment groups used another APP mouse model at 20-22 months of age to measure clearance of APP carboxyterminal fragments APP-αCTF and APP-βCTF (D). Rat hippocampal slice cultures from the untreated control group (con) and slices treated with submicromolar Δβ42 (early tauopathy model) in the absence or presence of PADK (5 μM for 4 days) were assessed for phosphorylated tau (pTau) and other proteins (E). For a model of early α-synucleinopathy, human A53T α-synuclein transgenic mice, at 7 months old, were studied with or without PADK treatment and assessed for human α-synuclein (α-syn) in TX-100 extracts of hippocampus and for other proteins in hippocampal homogenates (F). Plotted data (±SEM) were compared to neighboring vehicle groups by unpaired t-tests: *p=0.02, **p<0.01, ***p<0.001. APPswind and APP-PS1 mice are described in Butler et al., (2011), the entire content of which is hereby incorporated herein by reference.

[3] = biological target: T2, active form of cathepsin B (Mus musculus, UniProt P10605); assay: Active cathepsin B immunoblot in CNS regions of A53T α-synuclein transgenic mice; type: in vivo; details: i.p., 18 mg/kg/day
T2 construct: from tissue; host or cells: brain and CNS regions of mice (PADK-treated mice, A53T transgenic and wild-type mice, C57BL/6 mice)
Procedure: as §2
FIG. 6. […]

active cathepsin = biological target: T3, active cathepsin (Mus musculus, UniProt P10605); assay: Active cathepsin in brain samples of PADK-injected C57BL/6 mice; type: in vivo; details: ip daily for 9 days
T3 construct: from tissue; host or cells: brain and CNS regions of mice (PADK-treated mice, A53T transgenic and wild-type mice, C57BL/6 mice)

cathepsin B = cathepsin B (Mus musculus, UniProt P10605); assay: Cathepsin B species immunoblot in heart tissue of A53T mice; type: in vivo; set-up: heart tissue was obtained to test for changes in cathepsin B; from tissue; host or cells: mouse heart, wild-type and A53T transgenic (A16); details: A53T mice; i.p., 18 mg/kg/day
Procedure: FIG. 8. PADK also enhances cathepsin B species in the heart. The A53T early α-synucleinopathy mouse model was injected daily with vehicle or PADK (i.p., 18 mg/kg/day) to test for changes in heart tissue. […] Positions of molecular weight standards (kDa) are shown on the left side of the immunoblot. (B) In the lower graph, ratios between CB-30 and CB-105 (mean±SEM) provide a good example of the unique PADK effect on cathepsin B species in the heart. **P<0.01 as compared to vehicle-treated A53T mice.
Ratio measures between the 30-kDa form and the 105-kDa species indicate a unique PADK effect on cathepsin B species in the heart (FIG. 8 bar graph).

T2 sequence (P10605 80-333 limits assumed): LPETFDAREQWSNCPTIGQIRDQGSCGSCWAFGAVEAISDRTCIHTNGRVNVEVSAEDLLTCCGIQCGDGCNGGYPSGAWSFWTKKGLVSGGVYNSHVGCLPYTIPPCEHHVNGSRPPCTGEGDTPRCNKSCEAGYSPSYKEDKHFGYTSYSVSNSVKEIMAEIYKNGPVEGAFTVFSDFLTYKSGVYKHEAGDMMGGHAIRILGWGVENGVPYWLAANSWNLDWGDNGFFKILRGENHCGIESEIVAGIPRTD
T3 sequence (P10605 80-333 limits assumed): as above
Sequence of cathepsin B (P10605 80-333): as the sequence (P10605 80-333 limits assumed) above
T1 sequence (P10605 80-333 limits assumed): as above

Q: Which “passive avoidance behavior (latency post-shock)” value (11-month Fischer rats [1]; day after 0.6 mA foot shock, vs vehicle, P=0.016) does the source give for `C[C@H](NC(=O)[C@H](Cc1ccccc1)NC(=O)OCc1ccccc1)C(=O)C=[N+]=[N-]` [PADK, N-carbobenzyloxy-L-phenylalanyl-L-alanyl-diazomethylketone] here?
A: improve passive avoidance behavior

Q: What about the “latency time before entering the opened doorway, pre-shock” value (11-month Fischer rats [1]; seventh injection day, vs vehicle-treated aged rats) of the same molecule?
A: no difference

Q: And the “grid crossings per 3-min period, day 1” value (11-month Fischer rats [2])?
A: No significant difference

Q: What about the “exploratory habituation, second day” value (11-month Fischer rats [2]; P<0.05) of the same molecule?
A: improved habituation

Q: What about the “levels of active cathepsin B” value (active cathepsin B) of the same molecule?
A: increased levels of active cathepsin B

Q: What about the “active CatB levels increase in brains” value ([3]; 7-8 months) of the same molecule?
A: 3-6 fold

Q: And the “active form of cathepsin B across CNS regions (immunoblot)” value ([3]; 7 months, p<0.02 vs vehicle-treated tg)?
A: robust PADK-mediated increase

Q: And the “active cathepsin in brain samples” value (active cathepsin)?
A: dose-dependent increase

Q: And the “active form of cathepsin B (CB-30) in heart” value (cathepsin B)?
A: robust PADK-mediated increase
